Source: patent publication US20200216416A1, “QUINOLINE COMPOUNDS AS INHIBITORS OF TAM AND MET KINASES” (Array BioPharma Inc., priority 2019, published 2020)
Where two headings read alike, the source gives them in different places.

Legend:
human MET kinase D1228N = biological target: T1, human MET kinase D1228N (Homo sapiens, UniProt P08581, D1228N); assay: c-Met Enzyme Assay, D1228N mutant; type: binding; conditions: averaged IC50; D1228N 2 nM; 60-minute incubation at 22° C.; read-out: D1228 N IC50
T1 construct: GST-tagged recombinant human MET kinase domain; purchased Signal Chem
Procedure, shortened: (§1)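 LanthaScreen Eu TR-FRET binding: GST-tagged recombinant MET kinase domain incubated with compound, 50 nM Alexa-Fluor Tracer 236 and 2 nM Eu-anti-GST in 25 mM HEPES pH 7.4, 10 mM MgCl2, 1 mM DTT, 2% DMSO, 60 min at 22 °C. Ratiometric emission gave percent of control; IC50 from 4-parameter fit at 50 POC.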

[1] = biological target: T2, MET (wt) GST-tagged recombinant human MET kinase domain (Homo sapiens, UniProt P08581); assay: c-Met Enzyme Assay, wild type (LanthaScreen Eu Kinase Binding); conditions: averaged IC50; MET (wt) 10 nM; 60-minute incubation at 22° C.; read-out: SigChem WT IC50
T2 construct: GST-tagged recombinant human MET kinase domain; purchased Signal Chem
Procedure, shortened: as §1

MDR1 (P-gp) = biological target: T3, MDR1 (P-gp) (Homo sapiens, UniProt P08183); assay: MDR1 LLC-PK1 permeability assay; type: in vitro ADME; conditions: pig, MDR1 transfected LLC-PK1 cells; for Papp at 2 h, 1 μM: permeability coefficient (Papp)
T3 construct: expressed in transfected cells; host or cells: LLC-PK1
Procedure, shortened: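 MDR1-transfected LLC-PK1 monolayers dosed at 1 μM test article (1% organic) in A→B and B→A directions, in triplicate, for 2 h at 37 °C; lucifer yellow monitored monolayer integrity. Compound measured by LC-MS/MS against labetalol internal standard; Papp averaged per replicate, efflux ratio = Papp(B−A)/Papp(A−B).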

[2] = LLC-PK1, efflux ratio = Papp(B-A)/Papp(A-B), read-out: MDR1 Pe Ratio
[3] = LLC-PK1, Papp(B−A)/Papp(A−B), test article 1 μM, 2 hours, 37° C., read-out: Efflux ratio

T1 sequence (P08581 1078-1345 D1228N): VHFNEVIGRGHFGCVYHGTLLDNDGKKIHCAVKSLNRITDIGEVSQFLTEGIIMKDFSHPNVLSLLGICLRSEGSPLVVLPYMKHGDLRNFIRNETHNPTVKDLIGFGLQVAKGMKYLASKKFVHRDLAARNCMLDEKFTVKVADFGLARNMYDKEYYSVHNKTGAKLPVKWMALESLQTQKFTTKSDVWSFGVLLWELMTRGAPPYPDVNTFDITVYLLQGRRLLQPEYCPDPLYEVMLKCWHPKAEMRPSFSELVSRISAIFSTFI
T3 sequence (P08183 whole entry): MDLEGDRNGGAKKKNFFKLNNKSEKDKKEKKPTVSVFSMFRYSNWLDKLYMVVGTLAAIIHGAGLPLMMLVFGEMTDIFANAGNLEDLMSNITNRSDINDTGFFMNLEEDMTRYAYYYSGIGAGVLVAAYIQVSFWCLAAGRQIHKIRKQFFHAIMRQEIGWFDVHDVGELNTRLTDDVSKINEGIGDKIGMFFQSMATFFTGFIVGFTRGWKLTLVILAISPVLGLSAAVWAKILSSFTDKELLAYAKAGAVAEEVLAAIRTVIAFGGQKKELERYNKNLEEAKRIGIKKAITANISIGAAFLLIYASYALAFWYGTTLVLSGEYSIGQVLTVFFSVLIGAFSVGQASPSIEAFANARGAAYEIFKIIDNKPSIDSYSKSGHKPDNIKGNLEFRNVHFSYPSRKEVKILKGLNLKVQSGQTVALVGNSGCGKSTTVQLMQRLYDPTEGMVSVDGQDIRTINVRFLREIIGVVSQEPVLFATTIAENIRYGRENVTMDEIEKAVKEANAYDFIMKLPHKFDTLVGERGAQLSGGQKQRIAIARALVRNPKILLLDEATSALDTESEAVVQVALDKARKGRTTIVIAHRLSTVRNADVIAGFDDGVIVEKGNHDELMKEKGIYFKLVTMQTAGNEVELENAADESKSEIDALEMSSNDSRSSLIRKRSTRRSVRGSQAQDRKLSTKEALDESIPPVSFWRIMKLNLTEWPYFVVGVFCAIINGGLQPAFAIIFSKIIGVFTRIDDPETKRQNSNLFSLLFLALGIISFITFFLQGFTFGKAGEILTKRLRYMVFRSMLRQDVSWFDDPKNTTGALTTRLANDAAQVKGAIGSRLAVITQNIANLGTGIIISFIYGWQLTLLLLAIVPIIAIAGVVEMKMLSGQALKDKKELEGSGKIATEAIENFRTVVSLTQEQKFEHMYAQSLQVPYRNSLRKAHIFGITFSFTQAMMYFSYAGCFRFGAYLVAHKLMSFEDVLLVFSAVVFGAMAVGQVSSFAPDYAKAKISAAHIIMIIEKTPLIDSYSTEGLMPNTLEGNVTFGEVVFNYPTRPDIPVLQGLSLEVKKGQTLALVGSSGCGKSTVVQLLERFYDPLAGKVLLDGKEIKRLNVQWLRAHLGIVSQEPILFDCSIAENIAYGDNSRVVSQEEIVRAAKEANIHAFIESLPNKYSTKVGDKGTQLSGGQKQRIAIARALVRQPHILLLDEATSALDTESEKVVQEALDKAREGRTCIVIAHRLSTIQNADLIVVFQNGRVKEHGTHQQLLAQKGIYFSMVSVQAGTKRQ
T2 sequence (P08581 1078-1345 limits assumed): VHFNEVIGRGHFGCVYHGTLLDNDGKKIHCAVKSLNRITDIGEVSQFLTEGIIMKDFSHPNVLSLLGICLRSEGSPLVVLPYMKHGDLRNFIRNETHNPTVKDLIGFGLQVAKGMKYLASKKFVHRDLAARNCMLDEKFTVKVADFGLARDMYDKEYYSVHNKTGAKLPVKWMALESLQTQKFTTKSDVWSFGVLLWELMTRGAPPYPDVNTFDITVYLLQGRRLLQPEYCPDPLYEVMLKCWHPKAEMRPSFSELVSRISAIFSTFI

Structure (SMILES): CC(C)n1cc(C(=O)Nc2ccc(Oc3ccnc4cc(OC(F)(F)F)ccc34)cn2)c(=O)c(-c2ccc(F)cc2)c1 [Example 50, 5-(4-fluorophenyl)-1-isopropyl-4-oxo-N-(5-((7-(trifluoromethoxy)quinolin-4-yl)oxy)pyridin-2-yl)-1,4-dihydropyridine-3-carboxamide]
- IC50 (human MET kinase D1228N): 444 nM
- IC50 [1]: 59.2 nM
- efflux ratio at 2 h, 1 μM (MDR1 (P-gp); [2]): 4.7
- Papp at 2 h, 1 μM (MDR1 (P-gp)): < 1 ×10⁻⁶ cm/s

Structure (SMILES): CCOc1ccc2nccc(Oc3ccc(NC(=O)c4cn(C(C)C)cc(-c5ccc(F)cc5)c4=O)nc3)c2c1 [Example 51, N-(5-((6-ethoxyquinolin-4-yl)oxy)pyridin-2-yl)-5-(4-fluorophenyl)-1-isopropyl-4-oxo-1,4-dihydropyridine-3-carboxamide]
- IC50 (human MET kinase D1228N): 178 nM
- IC50 [1]: 22.2 nM
- efflux ratio at 2 h, 1 μM (MDR1 (P-gp); [3]): 3.5
- efflux ratio at 2 h, 1 μM (MDR1 (P-gp); [2]): 2
- Papp at 2 h, 1 μM (MDR1 (P-gp)): 3 ×10⁻⁶ cm/s

Structure (SMILES): CCOc1ccc2c(Oc3ccc(NC(=O)c4cn(C(C)C)cc(-c5ccc(F)cc5)c4=O)nc3)ccnc2c1 [Example 52, N-(5-((7-ethoxyquinolin-4-yl)oxy)pyridin-2-yl)-5-(4-fluorophenyl)-1-isopropyl-4-oxo-1,4-dihydropyridine-3-carboxamide]
- IC50 (human MET kinase D1228N): 26.3 nM
- IC50 [1]: 14.7 nM
- efflux ratio at 2 h, 1 μM (MDR1 (P-gp); [3]): 3.5
- efflux ratio at 2 h, 1 μM (MDR1 (P-gp); [2]): 1.8
- Papp at 2 h, 1 μM (MDR1 (P-gp)): 2 ×10⁻⁶ cm/s

Structure (SMILES): COc1cc2nccc(Oc3cnc(NC(=O)c4cn(C(C)C)cc(-c5ccc(F)cc5)c4=O)nc3)c2cc1OC [Example 54, N-(5-((6,7-dimethoxyquinolin-4-yl)oxy)pyrimidin-2-yl)-5-(4-fluorophenyl)-1-isopropyl-4-oxo-1,4-dihydropyridine-3-carboxamide]
- IC50 (human MET kinase D1228N): 8.3 nM
- IC50 [1]: 4.7 nM
- efflux ratio at 2 h, 1 μM (MDR1 (P-gp); [2]): 114
- Papp at 2 h, 1 μM (MDR1 (P-gp)): 12 ×10⁻⁶ cm/s

Structure (SMILES): COc1cc2nccc(Oc3cnc(NC(=O)c4cn(C(C)C)c(C)c(-c5ccc(F)cc5)c4=O)nc3)c2cc1OC [Example 55, N-(5-((6,7-dimethoxyquinolin-4-yl)oxy)pyrimidin-2-yl)-5-(4-fluorophenyl)-1-isopropyl-6-methyl-4-oxo-1,4-dihydropyridine-3-carboxamide]
- IC50 (human MET kinase D1228N): 3.4 nM
- IC50 [1]: 2.8 nM
- efflux ratio at 2 h, 1 μM (MDR1 (P-gp); [2]): 144
- Papp at 2 h, 1 μM (MDR1 (P-gp)): 8 ×10⁻⁶ cm/s

Structure (SMILES): COc1cc2c(Oc3ccc(NC(=O)c4cn(C(C)C)cc(-c5ccc(F)cc5)c4=O)nc3)ccnc2cc1OCCCN1CCOCC1 [Example 56, 5-(4-fluorophenyl)-1-isopropyl-N-(5-((6-methoxy-7-(3-morpholinopropoxy)quinolin-4-yl)oxy)pyridin-2-yl)-4-oxo-1,4-dihydropyridine-3-carboxamide]
- IC50 (human MET kinase D1228N): 4.3 nM
- IC50 [1]: 3.9 nM
- efflux ratio at 2 h, 1 μM (MDR1 (P-gp); [2]): 20
- Papp at 2 h, 1 μM (MDR1 (P-gp)): < 1 ×10⁻⁶ cm/s

Structure (SMILES): COc1cc2ncc(C#N)c(Oc3ccc(NC(=O)c4cn(C(C)C)cc(-c5ccc(F)cc5)c4=O)nc3)c2cc1OC [Example 57, N-(5-((3-cyano-6,7-dimethoxyquinolin-4-yl)oxy)pyridin-2-yl)-5-(4-fluorophenyl)-1-isopropyl-4-oxo-1,4-dihydropyridine-3-carboxamide]
- IC50 (human MET kinase D1228N): 1060 nM
- IC50 [1]: 297 nM
- efflux ratio at 2 h, 1 μM (MDR1 (P-gp); [3]): 3.5
- efflux ratio at 2 h, 1 μM (MDR1 (P-gp); [2]): 2.5
- Papp at 2 h, 1 μM (MDR1 (P-gp)): 15 ×10⁻⁶ cm/s

Structure (SMILES): COc1cc2nccc(Oc3ccc(NC(=O)c4cn(C(C)C)cc(-c5ccc(F)cc5)c4=O)cn3)c2cc1OC [Example 58, N-(6-((6,7-dimethoxyquinolin-4-yl)oxy)pyridin-3-yl)-5-(4-fluorophenyl)-1-isopropyl-4-oxo-1,4-dihydropyridine-3-carboxamide]
- IC50 (human MET kinase D1228N): 7.7 nM
- IC50 [1]: 2.7 nM
- efflux ratio at 2 h, 1 μM (MDR1 (P-gp); [3]): 3.5
- efflux ratio at 2 h, 1 μM (MDR1 (P-gp); [2]): 3
- Papp at 2 h, 1 μM (MDR1 (P-gp)): 10 ×10⁻⁶ cm/s
